Reference: patent US8471005B2 (Cephalon, Inc., priority 2008, dated 2013)
Like-named read-outs stand apart in the source and are kept apart here.

Key:
ALK = target: T1, ALK (Homo sapiens, UniProt Q9UM73); assay: ALK Kinase Assay (ELISA/TRF, PLC-γ substrate); format: biochemical; details: read-out: ALK Potency
T1 construct: host or cells: baculovirus expression system
Method in brief: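 PLC-γ coat 10 μg/mL in TBS; ALK 30 ng/ml added to start; 37° C, 15 min; Eu-N1 PT66 antibody detection (TRF). IC50: % inhibition vs log10 [cpd], variable-slope sigmoidal fit.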

JAK2 = target: T2, JAK2 (Homo sapiens, UniProt O60674); assay: Recombinant Human JAK2 Kinase Assay (TRF); format: biochemical; details: read-out: JAK2 Potency
T2 construct: host or cells: baculovirus expression system
Method in brief: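 Europium-labelled PY100 antibody reported tyrosine phosphorylation of a Neutravidin-captured biotinyl 15-mer peptide by JAK2 (baculovirus-expressed, 15 ng/ml). Conditions: 20 mM HEPES pH 7.2, 0.2 μM ATP, 1 mM MnCl2, 0.1% BSA, DMSO 2.5% final, 20 min at room temperature.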

[1] = ALK kinase inhibition, 1 μM ATP
[2] = JAK2 kinase inhibition, 0.2 μM ATP

T1 sequence (Q9UM73 19-1620): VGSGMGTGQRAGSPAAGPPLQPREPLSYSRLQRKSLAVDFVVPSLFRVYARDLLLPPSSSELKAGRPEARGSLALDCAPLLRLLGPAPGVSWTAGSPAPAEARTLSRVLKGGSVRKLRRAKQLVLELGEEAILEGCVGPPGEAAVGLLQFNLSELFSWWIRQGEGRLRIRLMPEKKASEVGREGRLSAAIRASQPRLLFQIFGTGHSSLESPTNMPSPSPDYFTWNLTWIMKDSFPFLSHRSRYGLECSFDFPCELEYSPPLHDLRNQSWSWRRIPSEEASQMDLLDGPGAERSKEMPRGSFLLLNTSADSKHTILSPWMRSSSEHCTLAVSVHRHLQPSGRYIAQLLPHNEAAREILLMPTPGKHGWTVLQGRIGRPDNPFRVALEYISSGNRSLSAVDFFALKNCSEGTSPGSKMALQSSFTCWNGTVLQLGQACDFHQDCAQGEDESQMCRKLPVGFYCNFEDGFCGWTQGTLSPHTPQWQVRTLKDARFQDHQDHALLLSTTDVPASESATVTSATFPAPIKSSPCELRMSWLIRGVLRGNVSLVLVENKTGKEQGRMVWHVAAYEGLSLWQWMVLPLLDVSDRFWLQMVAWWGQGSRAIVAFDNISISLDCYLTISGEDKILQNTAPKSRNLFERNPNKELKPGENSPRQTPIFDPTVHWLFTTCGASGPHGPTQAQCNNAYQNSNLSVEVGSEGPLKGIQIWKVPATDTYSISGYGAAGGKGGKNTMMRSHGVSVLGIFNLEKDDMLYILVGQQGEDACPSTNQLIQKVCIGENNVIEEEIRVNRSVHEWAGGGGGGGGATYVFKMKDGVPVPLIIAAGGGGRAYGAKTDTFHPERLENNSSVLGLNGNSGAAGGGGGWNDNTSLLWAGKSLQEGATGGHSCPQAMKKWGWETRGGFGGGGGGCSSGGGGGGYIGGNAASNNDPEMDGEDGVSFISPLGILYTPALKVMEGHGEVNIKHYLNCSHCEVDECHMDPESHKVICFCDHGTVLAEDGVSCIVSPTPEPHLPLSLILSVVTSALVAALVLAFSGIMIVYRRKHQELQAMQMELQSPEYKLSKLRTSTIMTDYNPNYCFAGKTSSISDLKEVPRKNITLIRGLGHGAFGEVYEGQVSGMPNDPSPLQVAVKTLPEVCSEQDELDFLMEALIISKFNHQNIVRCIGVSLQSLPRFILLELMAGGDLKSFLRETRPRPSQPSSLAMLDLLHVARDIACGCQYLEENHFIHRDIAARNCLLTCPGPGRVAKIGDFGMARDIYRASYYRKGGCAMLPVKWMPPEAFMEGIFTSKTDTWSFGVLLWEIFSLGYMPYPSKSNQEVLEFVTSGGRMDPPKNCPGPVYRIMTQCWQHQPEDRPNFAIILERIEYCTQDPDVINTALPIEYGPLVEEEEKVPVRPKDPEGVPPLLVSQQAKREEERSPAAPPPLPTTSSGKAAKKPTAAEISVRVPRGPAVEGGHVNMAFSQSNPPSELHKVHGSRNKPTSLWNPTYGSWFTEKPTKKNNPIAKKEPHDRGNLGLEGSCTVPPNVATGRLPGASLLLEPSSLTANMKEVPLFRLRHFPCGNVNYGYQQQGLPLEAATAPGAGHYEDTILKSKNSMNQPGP
T2 sequence (O60674 whole entry): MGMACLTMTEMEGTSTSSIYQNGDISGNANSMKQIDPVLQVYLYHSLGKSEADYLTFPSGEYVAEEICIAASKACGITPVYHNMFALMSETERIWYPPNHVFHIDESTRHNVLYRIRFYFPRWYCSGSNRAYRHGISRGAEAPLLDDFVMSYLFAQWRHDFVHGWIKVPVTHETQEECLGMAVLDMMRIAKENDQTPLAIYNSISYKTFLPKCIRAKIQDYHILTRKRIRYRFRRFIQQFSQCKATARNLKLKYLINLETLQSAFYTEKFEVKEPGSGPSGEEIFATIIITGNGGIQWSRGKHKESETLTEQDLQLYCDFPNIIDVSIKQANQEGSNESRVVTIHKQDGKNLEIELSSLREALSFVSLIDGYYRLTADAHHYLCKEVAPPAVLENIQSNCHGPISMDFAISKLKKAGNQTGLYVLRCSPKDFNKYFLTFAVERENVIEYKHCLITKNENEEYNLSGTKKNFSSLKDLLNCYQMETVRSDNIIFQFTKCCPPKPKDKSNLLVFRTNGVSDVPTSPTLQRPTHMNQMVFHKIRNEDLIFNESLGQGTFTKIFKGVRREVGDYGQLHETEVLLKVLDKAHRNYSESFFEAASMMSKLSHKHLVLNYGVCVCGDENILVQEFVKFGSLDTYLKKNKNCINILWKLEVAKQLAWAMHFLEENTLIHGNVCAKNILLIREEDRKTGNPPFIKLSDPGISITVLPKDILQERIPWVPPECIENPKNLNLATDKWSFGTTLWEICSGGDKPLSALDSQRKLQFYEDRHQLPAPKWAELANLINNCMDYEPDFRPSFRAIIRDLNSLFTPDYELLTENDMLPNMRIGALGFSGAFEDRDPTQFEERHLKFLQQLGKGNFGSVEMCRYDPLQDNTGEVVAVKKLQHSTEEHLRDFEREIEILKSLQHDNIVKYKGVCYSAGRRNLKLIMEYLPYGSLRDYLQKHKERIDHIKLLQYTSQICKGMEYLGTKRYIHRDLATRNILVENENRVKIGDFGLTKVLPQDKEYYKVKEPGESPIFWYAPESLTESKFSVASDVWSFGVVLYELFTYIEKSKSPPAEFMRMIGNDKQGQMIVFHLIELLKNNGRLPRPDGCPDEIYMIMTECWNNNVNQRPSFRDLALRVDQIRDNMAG

IC50 (ALK; ALK Kinase Inhibition) [nM]	IC50 (JAK2; JAK2 Kinase Inhibition) [nM]	IC50 (ALK; [1]) [nM]	IC50 (JAK2; [2]) [nM]	SMILES
100 to 1000	< 100	–	–	CN1CCN(C(=O)c2ccc(Nc3ncc4ccc(-c5cccc(S(=O)(=O)NC(C)(C)C)c5)n4n3)cc2)CC1 [Example 1410, N-tert-Butyl-3-{2-[4-(4-methyl-piperazine-1-carbonyl)-phenylamino]-pyrrolo[2,1-f][1,2,4]triazin-7-yl}-benzenesulfonamide]
100 to 1000	< 100	–	–	CNS(=O)(=O)c1cccc(-c2ccc3cnc(Nc4ccc(N5CCN(C)CC5)cc4)nn23)c1 [Example 366, N-Methyl-3-{2-[4-(4-methyl-piperazin-1-yl)-phenylamino]-pyrrolo[2,1-f][1,2,4]triazin-7-yl}-benzenesulfonamide]
–	–	< 100	< 100	CS(=O)(=O)Nc1cccc(-c2ccc3cnc(Nc4ccc(C5CCN(CCO)CC5)cc4)nn23)c1 [Example 958, N-[3-(2-{4-[1-(2-Hydroxy-ethyl)-piperidin-4-yl]-phenylamino}-pyrrolo[2,1-f][1,2,4]triazin-7-yl)-phenyl]-methanesulfonamide]
< 100	< 100	–	–	COc1ccccc1-c1cc(Br)c2cnc(Nc3ccc(N4CCN(C)CC4)cc3)nn12 [Example 101, [5-Bromo-7-(2-methoxy-phenyl)-pyrrolo[2,1-f][1,2,4]triazin-2-yl]-[4-(4-methyl-piperazin-1-yl)-phenyl]-amine]
100 to 1000	< 100	–	–	CS(=O)(=O)c1cccc(-c2ccc3cnc(Nc4ccc(N5CCC(CO)CC5)cc4)nn23)c1 [Example 96, (1-{4-[7-(3-Methanesulfonyl-phenyl)-pyrrolo[2,1-f][1,2,4]triazin-2-ylamino]-phenyl}-piperidin-4-yl)-methanol]
–	–	100 to 1000	< 100	CN1CCC(c2ccc(Nc3ncc4ccc(-c5ccn(C)n5)n4n3)cc2)CC1 [Example 954, [4-(1-Methyl-piperidin-4-yl)-phenyl]-[7-(1-methyl-1H-pyrazol-3-yl)-pyrrolo[2,1-f][1,2,4]triazin-2-yl]-amine]
< 100	< 100	–	–	CN1CCN(C2CCN(c3ccc(Nc4ncc5ccc(-c6cccc(Cl)c6)n5n4)cc3)CC2)CC1 [Example 312, [7-(3-Chloro-phenyl)-pyrrolo[2,1-f][1,2,4]triazin-2-yl]-{4-[4-(4-methyl-piperazin-1-yl)-piperidin-1-yl]-phenyl}-amine]
–	–	1000 to 10000	< 100	CN1CCOCc2cc(Nc3ncc4ccc(-c5ccc(S(C)(=O)=O)cc5)n4n3)ccc21 [Example 617, [7-(4-Methanesulfonyl-phenyl)-pyrrolo[2,1-f][1,2,4]triazin-2-yl]-(1-methyl-1,2,3,5-tetrahydro-benzo[e][1,4]oxazepin-7-yl)-amine]
100 to 1000	< 100	–	–	COc1ccc(-c2ccc3cnc(Nc4ccc5nc(CN6CCN(C)CC6)[nH]c5c4)nn23)cn1 [Example 1527, [7-(6-Methoxy-pyridin-3-yl)-pyrrolo[2,1-f][1,2,4]triazin-2-yl]-[2-(4-methyl-piperazin-1-ylmethyl)-3H-benzimidazol-5-yl]-amine]
–	–	100 to 1000	< 100	CCN(CC)C1CCN(c2ccc(Nc3ncc4ccc(-c5cccc(NS(=O)(=O)C(C)(C)C)c5)n4n3)cc2)CC1 [Example 1205, 2-Methyl-propane-2-sulfonic acid (3-{2-[4-(4-diethylamino-piperidin-1-yl)-phenylamino]-pyrrolo[2,1-f][1,2,4]triazin-7-yl}-phenyl)-amide]
–	–	100 to 1000	< 100	COc1ccc(-c2ccc3cnc(Nc4ccc(C5CCN(CCO)CC5)cc4)nn23)cn1 [Example 671, 2-(4-{4-[7-(6-Methoxy-pyridin-3-yl)-pyrrolo[2,1-f][1,2,4]triazin-2-ylamino]-phenyl}-piperidin-1-yl)-ethanol]
–	–	1000 to 10000	< 100	CC(C)(C)OC(=O)N1CCC=C(c2ccc3cnc(Nc4ccc(C5CCN(CC(N)=O)CC5)cc4)nn23)C1 [Example 675, 5-{2-[4-(1-Carbamoylmethyl-piperidin-4-yl)-phenylamino]-pyrrolo[2,1-f][1,2,4]triazin-7-yl}-3,6-dihydro-2H-pyridine-1-carboxylic acid tert-butyl ester]
–	–	1000 to 10000	< 100	CC(=O)N1CCc2ccc(Nc3ncc4ccc(-c5cnn(C)c5)n4n3)cc21 [Example 966, 1-{6-[7-(1-Methyl-1H-pyrazol-4-yl)-pyrrolo[2,1-f][1,2,4]triazin-2-ylamino]-2,3-dihydro-indol-1-yl}-ethanone]
< 100	< 100	–	–	COc1ccccc1-c1ccc2cnc(Nc3ccc(OC)c(N4CCOCC4)c3)nn12 [Example 394, (4-Methoxy-3-morpholin-4-yl-phenyl)-[7-(2-methoxy-phenyl)-pyrrolo[2,1-f][1,2,4]triazin-2-yl]-amine]
–	–	< 100	< 100	CS(=O)(=O)c1ccc(-c2ccc3cnc(Nc4ccc(C5CCN(CCO)CC5)cc4)nn23)cc1 [Example 679, 2-(4-{4-[7-(4-Methanesulfonyl-phenyl)-pyrrolo[2,1-f][1,2,4]triazin-2-ylamino]-phenyl}-piperidin-1-yl)-ethanol]

Further lines, the molecule ahead of its results:

SMILES	IC50 (ALK; ALK Kinase Inhibition) [nM]	IC50 (JAK2; JAK2 Kinase Inhibition) [nM]	IC50 (ALK; [1]) [nM]	IC50 (JAK2; [2]) [nM]
CC(=O)N1CCCC(C)(C)c2ccc(Nc3ncc4ccc(-c5cccc(S(=O)(=O)NC(C)(C)C)c5)n4n3)cc21 [Example 1369, 3-[2-(1-Acetyl-5,5-dimethyl-2,3,4,5-tetrahydro-1H-benzo[b]azepin-8-ylamino)-pyrrolo[2,1-f][1,2,4]triazin-7-yl]-N-tert-butyl-benzenesulfonamide]	1000 to 10000	< 100	–	–
COc1cc(N2CCC(N3CCOCC3)CC2)ccc1Nc1ncc2ccc(-c3ccccc3Cl)n2n1 [Example 1466, [7-(2-Chloro-phenyl)-pyrrolo[2,1-f][1,2,4]triazin-2-yl]-[2-methoxy-4-(4-morpholin-4-yl-piperidin-1-yl)-phenyl]-amine]	< 100	< 100	–	–
COc1cc(N2CCN(C[C@H](C)O)CC2)ccc1Nc1ncc2ccc(-c3ccccc3OC)n2n1 [Example 753, (S)-1-(4-{3-Methoxy-4-[7-(2-methoxy-phenyl)-pyrrolo[2,1-f][1,2,4]triazin-2-ylamino]-phenyl}-piperazin-1-yl)-propan-2-ol]	–	–	< 100	< 100
O=S(=O)(c1cccc(-c2ccc3cnc(Nc4ccc5nc(CO)[nH]c5c4)nn23)c1)N1CCOCC1 [Example 1068, (6-{7-[3-(Morpholine-4-sulfonyl)-phenyl]-pyrrolo[2,1-f][1,2,4]triazin-2-ylamino}-1H-benzoimidazol-2-yl)-methanol]	–	–	1000 to 10000	< 100
COc1cncc(-c2ccc3cnc(Nc4ccc5c(c4)CCN(CC(=O)N(C)C)CC5)nn23)c1 [Example 1575]	100 to 1000	< 100	–	–
COc1cc(N(C)C(=O)CN2CCOCC2)ccc1Nc1ncc2ccc(-c3ccccc3N(C)S(C)(=O)=O)n2n1 [Example 473, N-(4-{7-[2-(Methanesulfonyl-methyl-amino)-phenyl]-pyrrolo[2,1-f][1,2,4]triazin-2-ylamino}-3-methoxy-phenyl)-N-methyl-2-morpholin-4-yl-acetamide]	–	–	< 100	1000 to 10000
COc1ccc(Nc2ncc3cc4ccccc4n3n2)cc1 [Example 752, (4-Methoxy-phenyl)-[1,2,4]triazino[1,6-a]indol-2-yl-amine]	–	–	> 10000	< 100
COc1ccc(-c2ccc3cnc(Nc4ccc(-c5cccnc5)cc4)nn23)cn1 [Example 1088, [7-(6-Methoxy-pyridin-3-yl)-pyrrolo[2,1-f][1,2,4]triazin-2-yl]-(4-pyridin-3-yl-phenyl)-amine]	–	–	1000 to 10000	< 100
CC(=O)Nc1cccc(Nc2ncc3ccc(-c4cccc(NCCS(C)(=O)=O)c4)n3n2)c1 [Example 893, N-(3-{7-[3-(2-Methanesulfonyl-ethylamino)-phenyl]-pyrrolo[2,1-f][1,2,4]triazin-2-ylamino}-phenyl)-acetamide]	–	–	1000 to 10000	< 100
COc1ccccc1-c1ccc2cnc(Nc3cccc(OC4CCNCC4)c3)nn12 [Example 601, [7-(2-Methoxy-phenyl)-pyrrolo[2,1-f][1,2,4]triazin-2-yl]-[3-(piperidin-4-yloxy)-phenyl]-amine]	–	–	100 to 1000	< 100
CS(=O)(=O)c1cccc(-c2ccc3cnc(Nc4ccc(F)c(Cl)c4)nn23)c1 [Example 597, (3-Chloro-4-fluoro-phenyl)-[7-(3-methanesulfonyl-phenyl)-pyrrolo[2,1-f][1,2,4]triazin-2-yl]-amine]	–	–	> 10000	< 100
COc1ccc(-c2ccc3cnc(Nc4ccc5c(c4)NC(=O)CC5)nn23)cn1 [Example 979, 7-[7-(6-Methoxy-pyridin-3-yl)-pyrrolo[2,1-f][1,2,4]triazin-2-ylamino]-3,4-dihydro-1H-quinolin-2-one]	–	–	1000 to 10000	< 100
CN(c1ccccc1-c1ccc2cnc(Nc3ccc4c(c3)N(S(C)(=O)=O)CCC4)nn12)S(C)(=O)=O [Example 1062, N-{2-[2-(1-Methanesulfonyl-1,2,3,4-tetrahydro-quinolin-7-ylamino)-pyrrolo[2,1-f][1,2,4]triazin-7-yl]-phenyl}-N-methyl-methanesulfonamide]	–	–	100 to 1000	< 100
COc1cccc(Nc2ncc3ccc(-c4cccc(Cl)c4)n3n2)c1 [Example 146, [7-(3-Chloro-phenyl)-pyrrolo[2,1-f][1,2,4]triazin-2-yl]-(3-methoxy-phenyl)-amine]	> 10000	< 100	–	–
